This note sets out measurements from patent US12030904B2 (priority 2020, dated 2024).

Molecules are shown by their SMILES.

One data set has as its system SARS-CoV-2. Put plainly: microbe, parasite or virus in culture. It counts as cell-based. To be noted: Severe acute respiratory syndrome coronavirus 2, read-out: SARS EC50.
Data set [1] relates to Recombinant Respiratory Syncytial virus strain A2 containing the firefly luciferase reporter (RSV-Fluc). Put plainly: microbe, parasite or virus in culture. It counts as cell-based. To be noted: human respiratory syncytial virus, NHBE, read-out: RSV EC50, Table 4.
Another data set is described as follows: MT4 cytotoxicity (CC50). The following applies: human, MT4 cells, MT4 CC50, Table 4.

For `CCCCCCCCCCCCCCCCOC[C@H](COP(=O)(O)OC[C@H]1O[C@@](C#N)(c2ccc3c(N)ncnn23)[C@H](O)[C@@H]1O)OCc1ccc(C#N)cc1F` [Example 112, [(2R,3S,4R,5R)-5-(4-Aminopyrrolo[2,1-f][1,2,4]triazin-7-yl)-5-cyano-3,4-dihydroxy-tetrahydrofuran-2-yl]methyl [(2R)-2-[(4-cyano-2-fluoro-phenyl)methoxy]-3-hexadecoxy-propyl] hydrogen phosphate], the EC50 in the data set on SARS-CoV-2 is 130 nM; in data set [1], 63 nM. Also, in the data set “MT4 cytotoxicity (CC50)”, the midpoint of cytotoxicity, the CC50, lay at 1940 nM.
`CCCCCCCCCCCCCCCCOC[C@H](COP(=O)(O)OC[C@H]1O[C@@](C#N)(c2ccc3c(N)ncnn23)[C@H](O)[C@@H]1O)OCc1ccc(C#N)c(F)c1` [Example 113, [(2R,3S,4R,5R)-5-(4-aminopyrrolo[2,1-f][1,2,4]triazin-7-yl)-5-cyano-3,4-dihydroxy-tetrahydrofuran-2-yl]methyl [(2R)-2-[(4-cyano-3-fluoro-phenyl)methoxy]-3-hexadecoxy-propyl] hydrogen phosphate]: the EC50 in the data set with SARS-CoV-2 stood at 1100 nM; in data set [1], 210 nM. The molecule also yielded a CC50 in “MT4 cytotoxicity (CC50)” of 5450 nM.
Turning to `CCCCCCCCCCCCCCCCCCOC[C@H](COP(=O)(O)OC[C@H]1O[C@@](C#N)(c2ccc3c(N)ncnn23)[C@H](O)[C@@H]1O)OCc1ccc(C#N)cc1OC` [Example 114, [(2R,3S,4R,5R)-5-(4-Aminopyrrolo[2,1-f][1,2,4]triazin-7-yl)-5-cyano-3,4-dihydroxy-tetrahydrofuran-2-yl]methyl [(2R)-2-[(4-cyano-2-methoxy-phenyl)methoxy]-3-octadecoxy-propyl] hydrogen phosphate], the EC50 in the data set with SARS-CoV-2 turned out to be 480 nM; in data set [1], 93 nM. The same molecule yielded a CC50 in “MT4 cytotoxicity (CC50)” of 1880 nM.
In the same order, the values of `CCCCCCCCCCCCCCCCCCOC[C@H](COP(=O)(O)OC[C@H]1O[C@@](C#N)(c2ccc3c(N)ncnn23)[C@H](O)[C@@H]1O)OCc1ccc(OC)c(C#N)c1` [Example 115, [(2R,3S,4R,5R)-5-(4-Aminopyrrolo[2,1-f][1,2,4]triazin-7-yl)-5-cyano-3,4-dihydroxy-tetrahydrofuran-2-yl]methyl [(2R)-2-[(3-cyano-4-methoxy-phenyl)methoxy]-3-octadecoxy-propyl] hydrogen phosphate] are 390 nM, 166 nM and 1460 nM.
For `CCCCCCCCCCCCCCCCCCOC[C@H](COP(=O)(O)OC[C@H]1O[C@@](C#N)(c2ccc3c(N)ncnn23)[C@H](O)[C@@H]1O)OCc1ccc(C#N)nc1` [Example 116, [(2R,3S,4R,5R)-5-(4-aminopyrrolo[2,1-f][1,2,4]triazin-7-yl)-5-cyano-3,4-dihydroxy-tetrahydrofuran-2-yl]methyl [(2R)-2-[(6-cyano-3-pyridyl)methoxy]-3-octadecoxy-propyl] hydrogen phosphate], the EC50 with SARS-CoV-2 turned out to be 170 nM; in data set [1] it was 26 nM. For the same molecule, the CC50 in “MT4 cytotoxicity (CC50)” was 690 nM.
In the same order, the values of `CCCCCCCCCCCCCCOC[C@H](COP(=O)(O)OC[C@H]1O[C@@](C#N)(c2ccc3c(N)ncnn23)[C@H](O)[C@@H]1O)OCc1cc(F)cc(C#N)c1` [Example 117, [(2R,3S,4R,5R)-5-(4-aminopyrrolo[2,1-f][1,2,4]triazin-7-yl)-5-cyano-3,4-dihydroxy-tetrahydrofuran-2-yl]methyl [(2R)-2-[(3-cyano-5-fluoro-phenyl)methoxy]-3-tetradecoxy-propyl] hydrogen phosphate] are 200 nM, 15 nM and 473 nM.
`CCCCCCCCCCCCCCCOC[C@H](COP(=O)(O)OC[C@H]1O[C@@](C#N)(c2ccc3c(N)ncnn23)[C@H](O)[C@@H]1O)OCc1cc(F)cc(C#N)c1` [Example 118, [(2R,3S,4R,5R)-5-(4-Aminopyrrolo[2,1-f][1,2,4]triazin-7-yl)-5-cyano-3,4-dihydroxy-tetrahydrofuran-2-yl]methyl [(2R)-2-[(3-cyano-5-fluoro-phenyl)methoxy]-3-pentadecoxy-propyl] hydrogen phosphate]: the EC50 worked out at 120 nM in the data set with SARS-CoV-2 and 37 nM in data set [1]. The molecule further had a CC50 in the data set “MT4 cytotoxicity (CC50)” of 291 nM.
In the same order, the values of `CCCCCCCCCCCCCCOCCCCOP(=O)(O)OC[C@H]1O[C@@](C#N)(c2ccc3c(N)ncnn23)[C@H](O)[C@@H]1O` [Example 120, [(2R,3S,4R,5R)-5-(4-Aminopyrrolo[2,1-f][1,2,4]triazin-7-yl)-5-cyano-3,4-dihydroxy-tetrahydrofuran-2-yl]methyl 4-tetradecoxybutyl hydrogen phosphate] are 10000 nM, 224 nM and 12100 nM.
Turning to `CCCCCCCCCCCCCCCCCOCCCCOP(=O)(O)OC[C@H]1O[C@@](C#N)(c2ccc3c(N)ncnn23)[C@H](O)[C@@H]1O` [Example 121, [(2R,3S,4R,5R)-5-(4-Aminopyrrolo[2,1-f][1,2,4]triazin-7-yl)-5-cyano-3,4-dihydroxy-tetrahydrofuran-2-yl]methyl 4-heptadecoxybutyl hydrogen phosphate], the EC50 in the data set with SARS-CoV-2 came out at 8900 nM; in data set [1] it was 262 nM. In addition, the midpoint of cytotoxicity in “MT4 cytotoxicity (CC50)”, the CC50, lay at 10400 nM.
With `CCCCCCCCCCCCCCCCCCOC[C@H](COP(=O)(O)OC[C@H]1O[C@@](C#N)(c2ccc3c(N)ncnn23)[C@H](O)[C@@H]1O)OCc1cnc(C(F)(F)F)nc1` [Example 122, [(2R,3S,4R,5R)-5-(4-Aminopyrrolo[2,1-f][1,2,4]triazin-7-yl)-5-cyano-3,4-dihydroxy-tetrahydrofuran-2-yl]methyl [(2R)-3-octadecoxy-2-[[2-(trifluoromethyl)pyrimidin-5-yl]methoxy]propyl] hydrogen phosphate], the EC50 is 450 nM in the data set with SARS-CoV-2 and 39 nM in data set [1]. For the same molecule, the CC50 in the data set “MT4 cytotoxicity (CC50)” stood at 995 nM.
Turning to `CCCCCCCCCCCCCCCCCCOC[C@H](COP(=O)(O)OC[C@H]1O[C@@](C#N)(c2ccc3c(N)ncnn23)[C@H](O)[C@@H]1O)OCc1ccc(C(F)(F)F)nc1` [Example 123, [(2R,3S,4R,5R)-5-(4-Aminopyrrolo[2,1-f][1,2,4]triazin-7-yl)-5-cyano-3,4-dihydroxy-tetrahydrofuran-2-yl]methyl [(2R)-3-octadecoxy-2-[[6-(trifluoromethyl)-3-pyridyl]methoxy]propyl] hydrogen phosphate], the concentration for a half-maximal effect (EC50) with SARS-CoV-2 is 340 nM; in data set [1] it was 55 nM. This molecule also yielded a CC50 in “MT4 cytotoxicity (CC50)” of 1040 nM.
On the same counts, the results for `CCCCCCCCCCCCCCCCCCOC[C@H](COP(=O)(O)OC[C@H]1O[C@@](C#N)(c2ccc3c(N)ncnn23)[C@H](O)[C@@H]1O)OCc1ccc(C#N)cn1` [Example 124, [(2R,3S,4R,5R)-5-(4-Aminopyrrolo[2,1-f][1,2,4]triazin-7-yl)-5-cyano-3,4-dihydroxy-tetrahydrofuran-2-yl]methyl [(2R)-2-[(5-cyano-2-pyridyl)methoxy]-3-octadecoxy-propyl] hydrogen phosphate] are 200 nM, 27 nM and 703 nM.
In the same order, the values of `CCCCCCCC/C=C/CCCCCCCCOC[C@H](COP(=O)(O)OC[C@H]1O[C@@](C#N)(c2ccc3c(N)ncnn23)[C@H](O)[C@@H]1O)OCc1cc(F)cc(C#N)c1` [Example 126, ((2R,3S,4R,5R)-5-(4-aminopyrrolo[2,1-f][1,2,4]triazin-7-yl)-5-cyano-3,4-dihydroxytetrahydrofuran-2-yl)methyl ((R)-2-((3-cyano-5-fluorobenzyl)oxy)-3-(((E)-octadec-9-en-1-yl)oxy)propyl) hydrogen phosphate] are 140 nM, 30 nM and 366 nM.
In the same order, the values of `CCCCCCCC/C=C/CCCCCCCCOC[C@H](COP(=O)(O)OC[C@H]1O[C@@](C#N)(c2ccc3c(N)ncnn23)[C@H](O)[C@@H]1O)OCc1ccc(C#N)cc1F` [Example 127, ((2R,3S,4R,5R)-5-(4-aminopyrrolo[2,1-f][1,2,4]triazin-7-yl)-5-cyano-3,4-dihydroxytetrahydrofuran-2-yl)methyl ((R)-2-((4-cyano-2-fluorobenzyl)oxy)-3-(((E)-octadec-9-en-1-yl)oxy)propyl) hydrogen phosphate] are 140 nM, 28 nM and 3910 nM.
Consider `CCCCCCCC/C=C\CCCCCCCCOC[C@H](COP(=O)(O)OC[C@H]1O[C@@](C#N)(c2ccc3c(N)ncnn23)[C@H](O)[C@@H]1O)OCc1ccc(C#N)cc1F` [Example 129, ((2R,3S,4R,5R)-5-(4-aminopyrrolo[2,1-f][1,2,4]triazin-7-yl)-5-cyano-3,4-dihydroxytetrahydrofuran-2-yl)methyl ((R)-2-((4-cyano-2-fluorobenzyl)oxy)-3-(((Z)-octadec-9-en-1-yl)oxy)propyl) hydrogen phosphate], for which the results for the EC50 (in the data set on SARS-CoV-2; in data set [1]) were 110 nM and 22 nM, respectively. The molecule further registered a CC50 in the data set “MT4 cytotoxicity (CC50)” of 2430 nM.
For the molecule `CCCCCCCC/C=C\CCCCCCCCOC[C@H](COP(=O)(O)OC[C@H]1O[C@@](C#N)(c2ccc3c(N)ncnn23)[C@H](O)[C@@H]1O)OCc1ccccc1` [Example 130, ((2R,3S,4R,5R)-5-(4-aminopyrrolo[2,1-f][1,2,4]triazin-7-yl)-5-cyano-3,4-dihydroxytetrahydrofuran-2-yl)methyl ((R)-2-(benzyloxy)-3-(((Z)-octadec-9-en-1-yl)oxy)propyl) hydrogen phosphate], the EC50 stood at 110 nM with SARS-CoV-2 and 39 nM in data set [1]. Besides, the midpoint of cytotoxicity in “MT4 cytotoxicity (CC50)”, the CC50, lay at 3560 nM.
As to `CCCCCCCC/C=C/CCCCCCCCOC[C@H](COP(=O)(O)OC[C@H]1O[C@@](C#N)(c2ccc3c(N)ncnn23)[C@H](O)[C@@H]1O)OCc1ccccc1` [Example 131, ((2R,3S,4R,5R)-5-(4-aminopyrrolo[2,1-f][1,2,4]triazin-7-yl)-5-cyano-3,4-dihydroxytetrahydrofuran-2-yl)methyl ((R)-2-(benzyloxy)-3-(((E)-octadec-9-en-1-yl)oxy)propyl) hydrogen phosphate], the 50% effective concentration (EC50) in the data set on SARS-CoV-2 was found to be 110 nM; in data set [1] it was 39 nM. The molecule also registered a CC50 in “MT4 cytotoxicity (CC50)” of 3390 nM.
